# Assay results taken from ChEMBL document CHEMBL3400063, “Novel pyrrole carboxamide inhibitors of JAK2 as potential treatment of myeloproliferative disorders” (Bioorg Med Chem, 2015).
# Calls of active or inactive are those of the source. The rule behind the calls is not given here.
# Tests used:
# [1] = biological target: Tyrosine-protein kinase JAK2 (Homo sapiens, UniProt O60674); test: Inhibition of recombinant epitope-tagged JAK2 (808 to 1132) (unknown origin) using LPLDKDYYVVREPGQ as substrate by beta-countiing analysis in presence of 33P-gamma-ATP
# Sequence of Tyrosine-protein kinase JAK2 (O60674 whole entry): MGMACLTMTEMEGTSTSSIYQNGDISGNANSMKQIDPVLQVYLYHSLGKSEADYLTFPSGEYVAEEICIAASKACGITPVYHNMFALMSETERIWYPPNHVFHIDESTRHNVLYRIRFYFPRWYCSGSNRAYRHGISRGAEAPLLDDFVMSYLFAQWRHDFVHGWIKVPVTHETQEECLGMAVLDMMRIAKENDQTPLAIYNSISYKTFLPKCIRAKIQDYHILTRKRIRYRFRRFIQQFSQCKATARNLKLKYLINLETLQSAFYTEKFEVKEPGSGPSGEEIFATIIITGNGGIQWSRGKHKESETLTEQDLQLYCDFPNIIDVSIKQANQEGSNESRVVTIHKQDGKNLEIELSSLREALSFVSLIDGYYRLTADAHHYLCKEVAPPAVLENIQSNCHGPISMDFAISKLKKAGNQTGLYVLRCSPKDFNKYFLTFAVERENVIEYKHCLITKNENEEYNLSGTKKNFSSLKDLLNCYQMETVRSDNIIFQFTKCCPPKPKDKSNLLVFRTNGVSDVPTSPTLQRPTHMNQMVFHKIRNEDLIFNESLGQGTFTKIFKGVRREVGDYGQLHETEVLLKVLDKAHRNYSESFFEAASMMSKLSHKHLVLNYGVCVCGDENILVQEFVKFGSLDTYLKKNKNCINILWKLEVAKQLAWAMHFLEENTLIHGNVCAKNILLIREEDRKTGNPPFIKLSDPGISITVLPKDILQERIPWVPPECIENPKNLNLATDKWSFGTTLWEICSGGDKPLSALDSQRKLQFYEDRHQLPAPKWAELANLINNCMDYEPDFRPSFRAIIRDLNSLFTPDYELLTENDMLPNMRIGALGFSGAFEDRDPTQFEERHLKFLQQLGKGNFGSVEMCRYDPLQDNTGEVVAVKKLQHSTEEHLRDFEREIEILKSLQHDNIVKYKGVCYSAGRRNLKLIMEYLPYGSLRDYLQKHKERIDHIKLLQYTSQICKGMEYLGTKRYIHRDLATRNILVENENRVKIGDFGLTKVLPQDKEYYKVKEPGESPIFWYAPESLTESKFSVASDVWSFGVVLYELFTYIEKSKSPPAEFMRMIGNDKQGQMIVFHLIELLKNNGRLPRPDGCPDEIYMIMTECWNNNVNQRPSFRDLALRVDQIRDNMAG
# [2] = Clearance in Balb nu/nu mouse at 10 mg/kg, iv by LC/MS/MS analysis; assay type: ADME, organism-based; parameters: dose 10 mg/kg, route intravenous; details: in vivo
# [3] = Cmax in Balb nu/nu mouse at 10 mg/kg, iv by LC/MS/MS analysis; assay type: ADME, organism-based; parameters: dose 10 mg/kg, route intravenous; details: in vivo
# [4] = Solubility of the compound at pH 7; assay type: physicochemical; details: buffer
# [5] = Volume of distribution at steady state in Balb nu/nu mouse at 10 mg/kg, iv by LC/MS/MS analysis; assay type: ADME, organism-based; parameters: dose 10 mg/kg, route intravenous; details: in vivo, read-out: Vdss
# [6] = Half life in Balb nu/nu mouse at 10 mg/kg, iv by LC/MS/MS analysis; assay type: ADME, organism-based; parameters: dose 10 mg/kg, route intravenous; details: in vivo
# [7] = AUC (infinity) in Balb nu/nu mouse at 10 mg/kg, po by LC/MS/MS analysis; assay type: ADME, organism-based; parameters: dose 10 mg/kg, route oral, time infinity; details: plasma
# [8] = Cytotoxicity against human SET2 cells expressing JAK2 assessed as growth inhibition after 72 hrs by Cell Titre-Glo assay; assay type: functional, cell-based; details: SET-2, 72 h
# [9] = Cmax in Balb nu/nu mouse at 10 mg/kg, po by LC/MS/MS analysis; assay type: ADME, organism-based; parameters: dose 10 mg/kg, route oral; details: in vivo
# [10] = AUC (infinity) in Balb nu/nu mouse at 10 mg/kg, iv by LC/MS/MS analysis; assay type: ADME, organism-based; parameters: time infinity, dose 10 mg/kg, route intravenous; details: plasma
# [11] = Half life in Balb nu/nu mouse at 10 mg/kg, po by LC/MS/MS analysis; assay type: ADME, organism-based; parameters: dose 10 mg/kg, route oral; details: in vivo
# A2780 = test: Cytotoxicity against human A2780 cells expressing […] assessed as growth inhibition after 72 hrs by Cell Titre-Glo assay; assay type: functional, cell-based; details: A2780, 72 h
# Homo sapiens [12] = species: Homo sapiens; test: Selectivity ratio of IC50 for recombinant epitope-tagged JAK3 (781 to 1124) (unknown origin) to IC50 for recombinant epitope-tagged JAK2 (808 to 1132) (unknown origin)
# [13] = Cytotoxicity against human DERL7 cells expressing JAK1/3 assessed as growth inhibition after 72 hrs by Cell Titre-Glo assay; assay type: functional, cell-based; details: DERL7, 72 h
# Homo sapiens [14] = species: Homo sapiens; test: Selectivity ratio of IC50 for recombinant epitope-tagged JAK1 (861 to 1152) (unknown origin) to IC50 for recombinant epitope-tagged JAK2 (808 to 1132) (unknown origin)
# [15] = Oral bioavailability in Balb nu/nu mouse at 10 mg/kg by LC/MS/MS analysis; assay type: ADME, organism-based; details: in vivo
# Mus musculus [16] = test: In vivo inhibition of JAK2 in SCID mouse xenografted with human SET2 cells assessed as inhibition of STAT5 phosphorylation at 50 mg/kg, po up to 6 hrs; assay type: functional, organism-based; parameters: dose 50 mg/kg
# [17] = Antitumor activity against human SET2 cells xenografted in SCID mouse assessed as tumor growth inhibition at 50 mg/kg, po bid for 10 days relative to control; assay type: functional; details: SET-2, 240 h, read-out: TGI
# Mus musculus [18] = test: In vivo inhibition of JAK2 in SCID mouse xenografted with human SET2 cells assessed as total STAT5 level at 50 mg/kg, po after 3 hrs; assay type: functional, organism-based; parameters: dose 50 mg/kg
# Mus musculus [19] = test: Toxicity in SCID mouse xenografted with human SET2 cells assessed as body weight loss at 50 mg/kg, po bid for 10 days; assay type: organism-based; parameters: dose 50 mg/kg, route oral; details: in vivo, 240 h
# [20] = biological target: T1, Tyrosine-protein kinase JAK3 (Homo sapiens) (UniProt P52333); test: Inhibition of JAK3 in human DERL7 cells assessed as inhibition of STAT5 phosphorylation after 2 hrs by SDS-PAGE analysis in presence of human IL-2; assay type: cell-based
# T1 sequence (whole entry): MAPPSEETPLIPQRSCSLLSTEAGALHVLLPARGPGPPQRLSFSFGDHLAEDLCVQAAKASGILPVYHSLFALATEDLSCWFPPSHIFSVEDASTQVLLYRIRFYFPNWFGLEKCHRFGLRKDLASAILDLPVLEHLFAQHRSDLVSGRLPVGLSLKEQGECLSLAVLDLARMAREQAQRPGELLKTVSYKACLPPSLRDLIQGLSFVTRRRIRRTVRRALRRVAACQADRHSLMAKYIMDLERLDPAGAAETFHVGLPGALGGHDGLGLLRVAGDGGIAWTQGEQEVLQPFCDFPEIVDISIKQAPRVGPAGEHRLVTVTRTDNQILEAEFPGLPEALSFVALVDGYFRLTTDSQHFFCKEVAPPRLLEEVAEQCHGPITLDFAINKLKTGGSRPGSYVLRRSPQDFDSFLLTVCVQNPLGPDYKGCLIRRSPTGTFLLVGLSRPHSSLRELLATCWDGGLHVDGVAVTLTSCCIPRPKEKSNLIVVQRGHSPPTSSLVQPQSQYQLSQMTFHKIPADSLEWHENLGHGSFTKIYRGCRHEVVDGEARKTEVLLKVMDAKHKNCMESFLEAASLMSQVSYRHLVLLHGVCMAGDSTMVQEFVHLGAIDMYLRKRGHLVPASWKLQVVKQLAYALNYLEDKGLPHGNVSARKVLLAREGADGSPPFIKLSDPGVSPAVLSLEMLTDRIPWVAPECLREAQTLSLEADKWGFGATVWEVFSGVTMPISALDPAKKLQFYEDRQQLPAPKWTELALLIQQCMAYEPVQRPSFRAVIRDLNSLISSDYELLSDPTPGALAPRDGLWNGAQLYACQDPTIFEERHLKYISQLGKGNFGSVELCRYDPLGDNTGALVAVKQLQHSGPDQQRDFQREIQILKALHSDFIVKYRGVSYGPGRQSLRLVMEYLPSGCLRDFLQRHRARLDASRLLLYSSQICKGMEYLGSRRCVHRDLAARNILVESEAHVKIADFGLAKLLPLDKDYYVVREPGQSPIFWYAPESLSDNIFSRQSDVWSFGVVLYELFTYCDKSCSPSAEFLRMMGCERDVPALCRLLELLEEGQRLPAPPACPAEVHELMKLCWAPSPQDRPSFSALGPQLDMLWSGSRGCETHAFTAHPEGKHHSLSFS
# Mus musculus [21] = test: In vivo inhibition of JAK2 in SCID mouse xenografted with human SET2 cells assessed as total STAT5 level at 50 mg/kg, po up to 6 hrs; assay type: functional, organism-based; parameters: dose 50 mg/kg
# [22] = biological target: Tyrosine-protein kinase JAK1 (Homo sapiens) (UniProt P23458); test: Inhibition of JAK1 in human DERL7 cells assessed as inhibition of STAT5 phosphorylation after 2 hrs by SDS-PAGE analysis in presence of human IL-2; assay type: cell-based
# Sequence of Tyrosine-protein kinase JAK1 (Homo sapiens) (P23458 whole entry): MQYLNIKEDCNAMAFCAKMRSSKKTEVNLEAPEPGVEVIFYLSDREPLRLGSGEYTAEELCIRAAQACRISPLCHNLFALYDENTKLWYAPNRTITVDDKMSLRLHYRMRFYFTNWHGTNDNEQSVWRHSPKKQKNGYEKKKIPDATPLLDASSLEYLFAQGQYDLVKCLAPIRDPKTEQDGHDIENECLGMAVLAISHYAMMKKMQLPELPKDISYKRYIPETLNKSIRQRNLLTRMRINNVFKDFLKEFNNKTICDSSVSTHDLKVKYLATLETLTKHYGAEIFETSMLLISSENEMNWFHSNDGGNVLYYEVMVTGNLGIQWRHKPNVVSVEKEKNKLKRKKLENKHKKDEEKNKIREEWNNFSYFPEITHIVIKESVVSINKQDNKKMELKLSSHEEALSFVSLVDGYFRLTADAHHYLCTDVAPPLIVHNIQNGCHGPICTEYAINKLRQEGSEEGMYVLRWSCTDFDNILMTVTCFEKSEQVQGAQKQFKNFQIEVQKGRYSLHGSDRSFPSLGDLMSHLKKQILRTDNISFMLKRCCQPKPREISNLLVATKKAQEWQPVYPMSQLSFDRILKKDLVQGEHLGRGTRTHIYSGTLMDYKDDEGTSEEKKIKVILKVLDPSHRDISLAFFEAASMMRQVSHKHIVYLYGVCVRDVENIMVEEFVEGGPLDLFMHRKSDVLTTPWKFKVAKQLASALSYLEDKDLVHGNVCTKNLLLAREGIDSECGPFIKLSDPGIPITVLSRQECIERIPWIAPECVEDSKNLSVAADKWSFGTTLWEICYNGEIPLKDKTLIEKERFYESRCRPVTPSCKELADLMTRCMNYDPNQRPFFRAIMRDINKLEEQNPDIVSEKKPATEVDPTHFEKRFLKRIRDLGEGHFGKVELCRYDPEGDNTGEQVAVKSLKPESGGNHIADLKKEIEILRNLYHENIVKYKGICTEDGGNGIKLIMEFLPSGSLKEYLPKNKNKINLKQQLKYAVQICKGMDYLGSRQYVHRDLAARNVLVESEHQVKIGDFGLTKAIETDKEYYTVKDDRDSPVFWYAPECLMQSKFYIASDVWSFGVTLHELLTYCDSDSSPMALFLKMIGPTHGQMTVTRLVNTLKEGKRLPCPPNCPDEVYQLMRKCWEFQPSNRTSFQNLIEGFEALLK
# Mus musculus [23] = test: In vivo inhibition of JAK2 in SCID mouse xenografted with human SET2 cells assessed as inhibition of STAT5 phosphorylation at 50 mg/kg, po after 3 hrs; assay type: functional, organism-based; parameters: dose 50 mg/kg
smiles,measurement,setting,value
Cc1ccc(Cl)cc1-n1cc(-c2ccnc(N)n2)cc1C(N)=O,IC50,[1],216 nM
CNc1cc(-c2cc(C(N)=O)n(-c3cc(Cl)ccc3C)c2)ncn1,IC50,[1],131 nM
Cc1ccc(Cl)cc1-c1ncc(-c2ccnc(N)n2)[nH]1,IC50,[1],1070 nM
Cc1ccc(Cl)cc1-n1cc(-c2ccnc(N)n2)cn1,IC50,[1],950 nM
Cc1ccc(Cl)cc1-n1cc(-c2ncnc3[nH]ccc23)cc1C(N)=O,clearance,[2],17 mL/min/kg
same,Cmax,[3],51 µM
same,solubility,[4],40 µM
same,Vd,[5],0.7 L/kg
same,half-life,[6],5 h
same,AUC(0-inf),[7],1.6 µM·h
same,IC50,[8],80 nM
same,Cmax,[9],0.69 µM
same,AUC(0-inf),[10],26.2 µM·h
same,half-life,[11],3 h
same,IC50,A2780,7400 nM
same,Ratio IC50,Homo sapiens [12],5
same,IC50,[13],460 nM
same,Ratio IC50,Homo sapiens [14],3
same,bioavailability,[15],8%
CCc1ccc(Cl)cc1-n1cc(-c2ncnn3cccc23)cc1C(N)=O,clearance,[2],51 mL/min/kg
same,Cmax,[3],12.4 µM
same,solubility,[4],25 µM
same,Vd,[5],5.8 L/kg
same,half-life,[6],5.5 h
same,AUC(0-inf),[7],0.07 µM·h
same,IC50,[8],660 nM
same,Cmax,[9],0.04 µM
same,AUC(0-inf),[10],8.4 µM·h
same,half-life,[11],3.7 h
same,IC50,A2780,> 10000 nM
same,Ratio IC50,Homo sapiens [12],15
same,IC50,[13],2140 nM
same,Ratio IC50,Homo sapiens [14],7
same,bioavailability,[15],1%
Cc1ccc(Cl)cc1-n1cc(-c2ncnn3cccc23)cc1C(N)=O,IC50,[8],1920 nM
CNc1cc(-n2cc(C(N)=O)c(-c3cc(Cl)ccc3C)c2)ncn1,IC50,[1],620 nM
NC(=O)c1cc(-c2cc(N)ncn2)cn1-c1cc(C(F)(F)F)ccc1Cl,IC50,[8],1570 nM
Cc1ccc(Cl)cc1-c1cn(-c2ccnc(N)n2)cc1C(N)=O,IC50,[1],220 nM
Cc1ccc(Cl)cc1-c1cc(-c2ncnc3[nH]ccc23)[nH]c1C(N)=O,solubility,[4],3 µM
same,IC50,[1],9 nM
same,IC50,[8],460 nM
same,IC50,A2780,9400 nM
same,Ratio IC50,Homo sapiens [12],6
same,IC50,[13],7300 nM
same,Ratio IC50,Homo sapiens [14],5
CCc1ccc(Cl)cc1-c1cc(-c2ncnc3[nH]ccc23)[nH]c1C(N)=O,IC50,[1],3 nM
same,IC50,[8],320 nM
same,IC50,A2780,1600 nM
same,Ratio IC50,Homo sapiens [12],7
same,IC50,[13],1100 nM
same,Ratio IC50,Homo sapiens [14],6
CCc1ccc(Cl)cc1-n1cc(-c2cc(N)ncn2)cc1C(N)=O,clearance,[2],8.3 mL/min/kg
same,inhibition,Mus musculus [16],Active
same,inhibition in vivo at 50 mg/kg,[17],41%
same,Cmax,[3],45.9 µM
same,solubility,[4],128 µM
same,Vd,[5],0.6 L/kg
same,half-life,[6],2 h
same,inhibition,Mus musculus [18],inactive
same,AUC(0-inf),[7],21 µM·h
same,Activity,Mus musculus [19],Non-toxic
same,inhibition,[20],Active
same,Cmax,[9],12.5 µM
same,AUC(0-inf),[10],49.2 µM·h
same,half-life,[11],2.6 h
same,inhibition,Mus musculus [21],inactive
same,inhibition,[22],Active
same,IC50,[13],2730 nM
same,inhibition,Mus musculus [23],Active
same,bioavailability,[15],50%
Cc1ccc(Cl)cc1-n1nc(-c2ccnc(N)n2)cc1C(N)=O,IC50,[1],> 10000 nM
Cc1ccc(Cl)cc1-c1ccc(-c2ccnc(N)n2)[nH]1,IC50,[1],972 nM
CCc1ccc(Cl)cc1-n1cc(-c2cc(NC)ncn2)cc1C(N)=O,clearance,[2],12 mL/min/kg
same,Cmax,[3],32 µM
same,solubility,[4],111 µM
same,Vd,[5],1.4 L/kg
same,half-life,[6],5.4 h
same,AUC(0-inf),[7],2.9 µM·h
same,IC50,[8],500 nM
same,Cmax,[9],1.6 µM
same,AUC(0-inf),[10],37.4 µM·h
same,half-life,[11],2.4 h
same,IC50,A2780,> 10000 nM
same,Ratio IC50,Homo sapiens [12],11
same,IC50,[13],1720 nM
same,Ratio IC50,Homo sapiens [14],9
same,bioavailability,[15],9%
NC(=O)c1cc(-c2ncnc3[nH]ccc23)cn1-c1cc(C(F)(F)F)ccc1Cl,IC50,[8],60 nM
same,IC50,A2780,> 10000 nM
same,Ratio IC50,Homo sapiens [12],4
same,IC50,[13],150 nM
same,Ratio IC50,Homo sapiens [14],4
Cc1ccc(Cl)cc1-c1cn(-c2cc(N)ncn2)cc1C(N)=O,IC50,[1],369 nM
Cc1ccc(Cl)cc1-c1[nH]c(-c2ccnc(N)n2)cc1C(N)=O,IC50,[8],430 nM
same,IC50,[13],740 nM
Cc1ccc(Cl)cc1-c1cc(-c2cc(N)ncn2)[nH]c1C(N)=O,IC50,[1],690 nM
Cc1ccc(Cl)cc1-c1cn(-c2ncnc3[nH]ccc23)cc1C(N)=O,solubility,[4],2 µM
same,IC50,[1],16 nM
same,IC50,[8],500 nM
same,IC50,A2780,> 10000 nM
same,Ratio IC50,Homo sapiens [12],14
same,IC50,[13],> 10000 nM
same,Ratio IC50,Homo sapiens [14],5
CCc1ccc(Cl)cc1-n1cc(-c2ncnc3[nH]ccc23)cc1C(N)=O,IC50,[8],30 nM
same,IC50,A2780,> 5000 nM
same,IC50,[13],20 nM
CNc1cc(-c2cc(C(N)=O)n(-c3cc(C(F)(F)F)ccc3Cl)c2)ncn1,IC50,[1],331 nM
Cc1ccc(Cl)cc1-c1cn(-c2ncnn3cccc23)cc1C(N)=O,IC50,[1],2910 nM
